Measurements published in ChEMBL document CHEMBL5331078, “1-Benzyloxy-5-phenyltetrazole derivatives highly active against androgen receptor-dependent prostate cancer cells” (Eur J Med Chem, 2023).
Activity calls are given as the source filed them. The calls are words filed in the database; no cut-off is given here.

How the values were obtained:
[1] = Elimination rate constant in rat at 5 mg/kg, iv measured upto 24 hrs by LC-MS/MS analysis; type: ADME, organism-based; settings: in vivo
Papain = target: T1, Papain (Carica papaya, UniProt P00784); assay: Inhibition of papaya papain protease activity assessed as covalent binding mode of action at 10 uM incubated for 30 mins by absorbance based analysis; settings: 0.5 h
T1 sequence (P00784 whole entry): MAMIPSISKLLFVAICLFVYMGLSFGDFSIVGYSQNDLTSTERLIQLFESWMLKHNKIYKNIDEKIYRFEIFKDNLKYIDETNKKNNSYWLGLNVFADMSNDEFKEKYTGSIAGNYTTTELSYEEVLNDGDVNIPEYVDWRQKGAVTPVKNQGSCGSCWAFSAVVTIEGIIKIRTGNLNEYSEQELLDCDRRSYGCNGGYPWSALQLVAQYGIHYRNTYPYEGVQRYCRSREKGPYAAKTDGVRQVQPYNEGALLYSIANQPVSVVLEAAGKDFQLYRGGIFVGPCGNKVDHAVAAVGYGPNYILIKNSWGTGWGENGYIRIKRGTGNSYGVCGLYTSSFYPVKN

[2] = MRT (0 to t) in rat at 5 mg/kg, iv measured upto 24 hrs by LC-MS/MS analysis; type: ADME, organism-based; settings: in vivo
[3] = Metabolic stability in mouse liver microsomes assessed as intrinsic clearance incubated for 60 mins in presence of NADPH-regenerating system; type: ADME, Microsome; settings: liver microsomes, read-out: CLH
CWR22R [4] = assay: Downregulation of MYB gene expression in human 22Rv1 cells at 1 uM measured after 24 to 36 hrs by RNA sequencing analysis; type: functional, cell-based; settings: time 24-36 hrs
CWR22R [5] = assay: Antiproliferative activity against AR-v7 positive human 22Rv1 cells measured after 3 days by celltiter-glo luminescence assay; type: functional, cell-based; settings: Homo sapiens, 22Rv1, 72 h; read-out: IC50
CWR22R [6] = assay: Downregulation of FEN1 gene expression in human 22Rv1 cells at 1 uM measured after 24 to 36 hrs by RNA sequencing analysis; type: functional, cell-based; settings: time 24-36 hrs
CWR22R [7] = assay: Downregulation of AR genes expression in human 22Rv1 cells at 1 uM measured after 24 to 36 hrs by RNA sequencing analysis; type: functional, cell-based; settings: time 24-36 hrs

Clc1ccc(COn2nnnc2-c2ccc(Cl)cc2)cc1
k el at 24 h [1]: 0.000292 s⁻¹ | inhibition (INH) (Papain): Not Active | MRT last at 24 h [2]: 16.3 min | microsomal CLint [3]: 21 µL/min/mg | Activity (CWR22R [4]): Active | IC50 (CWR22R [5]): 11 nM | Activity (CWR22R [6]): Active | Activity (CWR22R [7]): Active
